Assay results from patent US20220046923A1, “HERBICIDAL CINNOLINIUM COMPOUNDS” (SYNGENTA CROP PROTECTION AG, priority 2018, published 2022).

Key:
Test in all cases: Post-emergence efficacy, glasshouse spray test
Type in all cases: in vivo
[1] = test system: Echinochloa crus-galli (ECHCG); settings: Echinochloa crus-galli, post-emergence, 312 h, evaluated after 13 days, read-out: Control of weed species ECHCG after post-emergence application (100=total damage to plant; 0=no damage to plant); for pest or weed control at 1000 g/ha: application rate 1000 g/Ha; for pest or weed control at 500 g/ha: application rate 500 g/Ha
Experimental: (§1) Seeds of a variety of test species were sown in standard soil in pots. After cultivation for 14 days (post-emergence) under controlled conditions in a glasshouse (at 24/16° C., day/night; 14 hours light; 65% humidity), the plants were sprayed with an aqueous spray solution derived from the dissolution of the technical active ingredient formula (I) in a small amount of acetone and a special solvent and emulsifier mixture referred to as IF50 (11.12% Emulsogen EL360 TM+44.44% N-methylpyrrolidone+44.44% Dowanol DPM glycol ether), to create a 50 g/l solution which was then diluted to required concentration using 0.25% or 1% Empicol ESC70 (Sodium lauryl ether sulphate)+1% ammonium sulphate as diluent. The test plants were then grown in a glasshouse under controlled conditions (at 24/16° C., day/night; 14 hours light; 65% humidity) and watered twice daily. After 13 days the test was evaluated (100=total damage to plant; 0=no damage to plant).
(§2) Ipomoea hederacea (IPOHE), Euphorbia heterophylla (EPHHL), Chenopodium album (CHEAL), Amaranthus palmeri (AMAPA), Lolium perenne (LOLPE), Digitaria sanguinalis (DIGSA), Eleusine indica (ELEIN), Echinochloa crus-galli (ECHCG), Setaria faberi (SETFA)

[2] = test system: Amaranthus palmeri (AMAPA); settings: Amaranthus palmeri, post-emergence, 312 h; application rate 1000 g/Ha; evaluated after 13 days; read-out: Control of weed species AMAPA after post-emergence application (100=total damage to plant; 0=no damage to plant)
Experimental: as §1, §2

Lolium perenne (LOLPE) = settings: Lolium perenne, post-emergence, 312 h, evaluated after 13 days, read-out: Control of weed species LOLPE after post-emergence application (100=total damage to plant; 0=no damage to plant); for pest or weed control at 1000 g/ha: application rate 1000 g/Ha; for pest or weed control at 500 g/ha: application rate 500 g/Ha
Experimental: as §1, §2

[3] = test system: Euphorbia heterophylla (EPHHL); settings: Euphorbia heterophylla, post-emergence, 312 h, evaluated after 13 days, read-out: Control of weed species EPHHL after post-emergence application (100=total damage to plant; 0=no damage to plant); for pest or weed control at 1000 g/ha: application rate 1000 g/Ha; for pest or weed control at 500 g/ha: application rate 500 g/Ha
Experimental: as §1, §2

Eleusine indica (ELEIN) = settings: Eleusine indica, post-emergence, 312 h, evaluated after 13 days, read-out: Control of weed species ELEIN after post-emergence application (100=total damage to plant; 0=no damage to plant); for pest or weed control at 1000 g/ha: application rate 1000 g/Ha; for pest or weed control at 500 g/ha: application rate 500 g/Ha
Experimental: as §1, §2

Setaria faberi (SETFA) = settings: Setaria faberi, post-emergence, 312 h, evaluated after 13 days, read-out: Control of weed species SETFA after post-emergence application (100=total damage to plant; 0=no damage to plant); for pest or weed control at 1000 g/ha: application rate 1000 g/Ha; for pest or weed control at 500 g/ha: application rate 500 g/Ha
Experimental: as §1, §2

[4] = test system: Ipomoea hederacea (IPOHE); settings: Ipomoea hederacea, post-emergence, 312 h, evaluated after 13 days, read-out: Control of weed species IPOHE after post-emergence application (100=total damage to plant; 0=no damage to plant); for pest or weed control at 1000 g/ha: application rate 1000 g/Ha; for pest or weed control at 500 g/ha: application rate 500 g/Ha
Experimental: as §1, §2

[5] = test system: Chenopodium album (CHEAL); settings: Chenopodium album, post-emergence, 312 h, evaluated after 13 days, read-out: Control of weed species CHEAL after post-emergence application (100=total damage to plant; 0=no damage to plant); for pest or weed control at 1000 g/ha: application rate 1000 g/Ha; for pest or weed control at 500 g/ha: application rate 500 g/Ha
Experimental: as §1, §2

[6] = test system: Digitaria sanguinalis (DIGSA); settings: Digitaria sanguinalis, post-emergence, 312 h, evaluated after 13 days, read-out: Control of weed species DIGSA after post-emergence application (100=total damage to plant; 0=no damage to plant); for pest or weed control at 1000 g/ha: application rate 1000 g/Ha; for pest or weed control at 500 g/ha: application rate 500 g/Ha
Experimental: as §1, §2

Compound | pest or weed control at 1000 g/ha [1] [%] | pest or weed control at 1000 g/ha (Lolium perenne (LOLPE)) [%] | pest or weed control at 1000 g/ha [3] [%] | pest or weed control at 1000 g/ha (Eleusine indica (ELEIN)) [%] | pest or weed control at 1000 g/ha (Setaria faberi (SETFA)) [%] | pest or weed control at 1000 g/ha [4] [%] | pest or weed control at 1000 g/ha [5] [%] | pest or weed control at 1000 g/ha [6] [%] | pest or weed control at 500 g/ha [1] [%] | pest or weed control at 500 g/ha (Lolium perenne (LOLPE)) [%] | pest or weed control at 500 g/ha [3] [%] | pest or weed control at 500 g/ha (Eleusine indica (ELEIN)) [%] | pest or weed control at 500 g/ha (Setaria faberi (SETFA)) [%] | pest or weed control at 500 g/ha [4] [%] | pest or weed control at 500 g/ha [5] [%] | pest or weed control at 500 g/ha [6] [%] | other results
COC(=O)C[n+]1ccc2ccccc2n1 [Compound A1, methyl 2-cinnolin-2-ium-2-ylacetate bromide] | 70 | 40 | 90 | 100 | 60 | 50 | 60 | 70 |  |  |  |  |  |  |  |  | pest or weed control at 1000 g/ha [2]: 100%
Cc1ccc2n[n+](CCS(=O)(=O)[O-])cc(C)c2c1 [Compound A33] | 50 | 0 | 60 | 30 | 40 | 30 | 10 | 40 |  |  |  |  |  |  |  |  | 
O=S(=O)([O-])CC[n+]1ccc2cc(Br)ccc2n1 [Compound A34] | 40 | 10 | 40 | 30 | 20 | 20 | 20 | 40 |  |  |  |  |  |  |  |  | 
Cc1c[n+](CCS(=O)(=O)[O-])nc2c(C)cccc12 [Compound A35] | 20 | 10 | 30 | 20 | 0 | 20 | 0 | 30 |  |  |  |  |  |  |  |  | 
Cc1cccc2cc[n+](CCS(=O)(=O)[O-])nc12 [Compound A36] | 70 | 20 | 30 | 90 | 40 | 30 |  | 80 |  |  |  |  |  |  |  |  | 
COC(=O)c1cccc(C[n+]2ccc3ccccc3n2)c1 [Compound A90] | 10 | 0 | 30 | 20 | 0 | 10 |  | 10 |  |  |  |  |  |  |  |  | pest or weed control at 1000 g/ha [2]: 20%
O=C(O)c1cccc(C[n+]2ccc3ccccc3n2)c1 [Compound A91] | 40 | 10 | 40 | 20 | 20 | 10 | 20 | 20 |  |  |  |  |  |  |  |  | 
O=S(=O)(O)c1ccc(C[n+]2ccc3ccccc3n2)cc1 [Compound A92] | 30 | 10 | 50 | 30 | 10 | 40 | 0 | 20 |  |  |  |  |  |  |  |  | 
CN(C)C(=O)c1ccc2n[n+](CCS(=O)(=O)[O-])ccc2c1 [Compound A101] |  |  |  |  |  |  |  |  | 60 | 20 | 70 | 80 | 70 | 40 | 60 | 70 | 
CN(C)C(=O)c1cccc2cc[n+](CCS(=O)(=O)[O-])nc12 [Compound A102, 2-[8-(dimethylcarbamoyl)cinnolin-2-ium-2-yl]ethanesulfonate] |  |  |  |  |  |  |  |  | 70 | 30 | 60 | 100 | 90 | 70 | 100 | 80 | 
CC(=O)Nc1ccc2n[n+](CCS(=O)(=O)[O-])ccc2c1 [Compound A104] |  |  |  |  |  |  |  |  |  |  |  |  |  |  |  |  | pest or weed control at 125 g/ha ([1]; application rate 125 g/Ha): 60%; pest or weed control at 125 g/ha (Lolium perenne (LOLPE); application rate 125 g/Ha): 20%; pest or weed control at 125 g/ha ([3]; application rate 125 g/Ha): 50%; pest or weed control at 125 g/ha (Eleusine indica (ELEIN); application rate 125 g/Ha): 80%; pest or weed control at 125 g/ha (Setaria faberi (SETFA); application rate 125 g/Ha): 70%; pest or weed control at 125 g/ha ([4]; application rate 125 g/Ha): 10%; pest or weed control at 125 g/ha ([5]; application rate 125 g/Ha): 30%; pest or weed control at 125 g/ha ([6]; application rate 125 g/Ha): 60%
CC(=O)Nc1ccc2cc[n+](CCS(=O)(=O)[O-])nc2c1 [Compound A105] |  |  |  |  |  |  |  |  | 50 | 20 | 30 | 80 | 70 | 20 | 70 | 60 | 
CN(C)C(=O)c1ccc2cc[n+](CCS(=O)(=O)[O-])nc2c1 [Compound A106] |  |  |  |  |  |  |  |  | 80 | 30 | 30 | 100 | 100 | 20 | 80 | 70 | 
